Reference: the NIST ThermoML archive (doi:10.1021/je100300s)
Numbers after ± are expanded uncertainties.

Assay: refractive index (Na D-line) (dimensionless); xn = mol fraction of the nth substance listed
Settings: 101 kPa, Liquid, Standard Abbe refractometry

CC(O)CN (stereo not drawn) [1-amino-2-propanol] + O
refractive index
Settings	293.15 K	298.15 K	303.15 K	308.15 K	313.15 K	318.15 K	323.15 K	328.15 K	333.15 K
x1 = 0.05	1.35692 ± 0.00034	1.35622 ± 0.00034	1.35539 ± 0.00034	1.35453 ± 0.00034	1.35365 ± 0.00034	1.35269 ± 0.00034	1.35169 ± 0.00034	1.35059 ± 0.00034	1.35023 ± 0.00034
x1 = 0.07	1.36527 ± 0.00034	1.36437 ± 0.00034	1.36345 ± 0.00034	1.36246 ± 0.00034	1.36149 ± 0.00034	1.36047 ± 0.00034	1.35931 ± 0.00034	1.35816 ± 0.00034	1.35711 ± 0.00034
x1 = 0.0986	1.3763 ± 0.00033	1.37524 ± 0.00033	1.37416 ± 0.00033	1.37306 ± 0.00033	1.37191 ± 0.00033	1.37079 ± 0.00033	1.36955 ± 0.00033	1.36821 ± 0.00033	1.36712 ± 0.00033
x1 = 0.1993	1.40333 ± 0.00034	1.40184 ± 0.00033	1.40038 ± 0.00033	1.39868 ± 0.00033	1.39716 ± 0.00033	1.39563 ± 0.00033	1.39469 ± 0.00033	1.39247 ± 0.00033	1.39103 ± 0.00033
x1 = 0.3003	1.41934 ± 0.00034	1.41723 ± 0.00034	1.41554 ± 0.00034	1.41385 ± 0.00034	1.41214 ± 0.00034	1.41051 ± 0.00034	1.40883 ± 0.00034	1.4072 ± 0.0003	1.40563 ± 0.00034
x1 = 0.3955	1.42844 ± 0.00034	1.4268 ± 0.00034	1.42513 ± 0.00034	1.42331 ± 0.00034	1.42155 ± 0.00034	1.41987 ± 0.00034	1.41801 ± 0.00034	1.4164 ± 0.0003	1.4146 ± 0.00034
x1 = 0.4929	1.43452 ± 0.00034	1.43286 ± 0.00034	1.431 ± 0.00034	1.42913 ± 0.00034	1.4273 ± 0.00034	1.42548 ± 0.00034	1.42386 ± 0.00034	1.4226 ± 0.0003	1.42038 ± 0.00034
x1 = 0.5995	1.43934 ± 0.00035	1.4377 ± 0.00035	1.4359 ± 0.00035	1.43375 ± 0.00035	1.43187 ± 0.00035	1.43017 ± 0.00035	1.42857 ± 0.00035	1.42697 ± 0.00035	1.42445 ± 0.00035
x1 = 0.7002	1.44298 ± 0.00035	1.44053 ± 0.00035	1.43897 ± 0.00035	1.43685 ± 0.00035	1.43493 ± 0.00035	1.43243 ± 0.00035	1.43146 ± 0.00035	1.43006 ± 0.00035	1.42775 ± 0.00035
x1 = 0.8006	1.44474 ± 0.00036	1.44287 ± 0.00036	1.4411 ± 0.00036	1.43908 ± 0.00036	1.43715 ± 0.00036	1.43532 ± 0.00036	1.43369 ± 0.00036	1.43134 ± 0.00036	1.42949 ± 0.00036
x1 = 0.8992	1.44655 ± 0.00036	1.4447 ± 0.00036	1.44275 ± 0.00036	1.44076 ± 0.00036	1.43889 ± 0.00036	1.43691 ± 0.00036	1.4349 ± 0.00036	1.43292 ± 0.00036	1.43089 ± 0.00036
x1 = 1	1.448 ± 0.00037	1.44609 ± 0.00037	1.44409 ± 0.00037	1.44211 ± 0.00037	1.44009 ± 0.00037	1.43817 ± 0.00037	1.43631 ± 0.00037	1.43405 ± 0.00037	1.43208 ± 0.00037
